The source of these data is patent US9610293B2, “Co-micronization product comprising ulipristal acetate” (LABORATOIRE HRA-PHARMA, priority 2012, dated 2017).

As usually defined, the Tmax is the time from dosing to the highest level. Usually AUC(0-inf) stands for the area under the concentration-time curve extrapolated to infinity. Low values mean less exposure, high ones more exposure. In general, AUC(0-t) refers to the area under the concentration-time curve up to a stated or last time point. By Cmax is commonly meant the peak of the concentration-time curve.

The nature of data set [1]: Pharmacokinetic study in rats (plasma UPA by LC/MS/MS). The note with it: female, OFA(SD), rat, 4 mg UPA per kg, powder into the stomach, pooled plasma. It counts as in vivo. As for the experimental part: The pharmacokinetic study was carried out on female OFA(SD) rats weighing between 0.206 and 0.251 kg. The animals were deprived of food for 16 hours before the administration of the samples. The animals were placed in cages, the temperature of which was maintained between 20 and 25° C.; the day/night cycles were 12 h each (6 am-6 pm) and the air was conditioned using a ventilation system.
The samples tested are the following: • Comicronizate of ulipristal acetate/SDS, 1/1 ratio • Powder of ulipristal acetate micronized in the absence of any excipient (UPA micronized alone)
A predetermined amount of powder was administered by means of an oesophageal tube using a cannula. The powder was introduced into the stomach of each animal using a catheter. The dose administered corresponds to 4 mg of ulipristal acetate per kg.
Blood samples of 300 μl were taken from the (left or right) jugular of the rats. In order to avoid excessively high blood sampling, the rats were divided into 3 groups of 6 rats as follows:
The samples were collected on heparin tubes and then centrifuged within the hour for 7-8 min at 1600 g at 4° C. At each sampling time, the plasma of the 6 rats of the group is “pooled”.
The ulipristal acetate was assayed by LC/MS/MS under the following conditions: • Mobile phase: Methanol/distilled water (70/30, V/V)+1% acetic acid • Column: BDS Hypersil phenyl, 100×2.1 mm, 5 μm • Elution mode: isocratic • flow rate: 0.400 ml/min • Injection volume: 10.0 μl • Needle cleaning liquid: Acetonitrile/isopropanol/acetone (40/40/20, V/V/V) 2. Results

The nature of data set [2]: In vitro dissolution of UPA from gelatin gel capsules (paddle device, European Pharmacopoeia §2.9.3, 900 ml). The format is physicochemical. The settings on record: 30 mg UPA capsule, 900 ml gastric pH buffer + 0.1% SDS, 37°C, 50 rpm, mean of 3. As for the experimental part:
The in vitro dissolution test can be carried out using any commercially available device comprising paddles. Example 1 hereinafter presents implementing conditions for determining the in vitro dissolution rate of a comicronizate according to the invention. Briefly, an amount of comicronizate representing 30 mg of active ingredient is placed in a gelatin gel capsule. This gel capsule is then placed in 900 ml of a medium buffered at gastric pH, comprising 0.1% of SDS, at 37±0.5° C., and subjected to stirring at 50 revolutions per minute (rpm) (speed of rotation of the paddles of the dissolution device).
For each comicronizate obtained, hard gelatin gel capsules containing an amount of comicronizate corresponding to 30 mg of UPA per capsule were prepared. The studies of in vitro dissolution of UPA as comicronizate were carried out using these capsules according to the European Pharmacopoeia in §2.9.3, using a paddle dissolution device. For each comicronizate, a gel capsule containing said comicronizate was placed in a bowl of the dissolution device containing 900 ml of a dissolution medium. The dissolution medium is an aqueous solution buffered at gastric pH and comprising 0.1% by weight of SDS. The conditions for carrying out the in vitro dissolutions are the following: • Paddle rotation speed: 50 revolutions per minute (rpm) • Temperature: 37° C.±0.5° C.
The dissolution of the UPA was monitored by spectrophotometry.
By way of control experiment, a gelatin gel capsule containing 30 mg of ulipristal acetate micronized alone (i.e. UPA micronized in the absence of any co-micronization excipient) was used.
For each comicronizate, the dissolution experiment was reproduced 3 times. […]

The conditions of data set [3]: single dose of 30 mg within 120 hours following unprotected intercourse; cited from earlier work.
The conditions of data set [4]: chronic administration, 5 mg or 10 mg per day; cited from earlier work.

The structures appear in SMILES notation.

On to `CC(=O)O[C@]1(C(C)=O)CCC2C3CCC4=CC(=O)CCC4=C3[C@@H](c3ccc(N(C)C)cc3)C[C@@]21C` (stereo partly drawn) [UPA micronized alone, 17α-acetoxy-11β-[4-(N,N-dimethylamino)-phenyl]-19-norpregna-4,9-diene-3,20-dione], for which the Tmax in data set [1] (oral) amounted to 1.25 h. In data set [1] (po, 4 mg/kg), the total exposure AUC(0-inf) amounted to 1380 ng·h/mL. In data set [1] (po, 4 mg/kg), the AUC(0-t) was found to be 1340 ng·h/mL. This molecule also had a Cmax in data set [1] (po, 4 mg/kg) of 447 ng/mL. For the same molecule, the “Percentage of UPA released relative to initial amount per gel capsule” value is given as 0.0% in data set [2] (t=0 min); 0.0% in data set [2] (t=1 min); 5.5% in data set [2] (t=5 min); 15.00% in data set [2] (t=7.5 min); 22.30% in data set [2] (t=10 min); 30.00% in data set [2] (t=15 min). Further, the “Percentage of UPA released relative to initial amount per gel capsule” value in data set [2] (t=20 min) is on record as 34.30%; in data set [2] (t=20 min, listed as Micronized UPA (in the absence of excipient)), 34.30%; in data set [2] (t=20 min, listed as ulipristal acetate which has been micronized in the absence of excipient), “approximately 35%”; in data set [2] (t=30 min), 39.50%; in data set [2] (t=45 min), 47.50%; in data set [2] (t=60 min) it was 53.80%.
Turning to `CC(=O)O[C@]1(C(C)=O)CCC2C3CCC4=CC(=O)CCC4=C3[C@@H](c3ccc(N(C)C)cc3)C[C@@]21C` (stereo partly drawn) [UPA, 17α-acetoxy-11β-[4-(N,N-dimethylamino)-phenyl]-19-norpregna-4,9-diene-3,20-dione], the Emergency contraceptive effect result in data set [3] is on record as “makes it possible to prevent an unwanted pregnancy”. Moreover, the “Effect on symptoms associated with uterine fibromas” value in data set [4] is “significantly reduce the symptoms associated with uterine fibromas”.
